Seven compounds from patent publication US20250368649A1, “TETRAHYDROPYRIDOPYRIMIDINE PAN-KRAS INHIBITORS” (Mirati Therapeutics, Inc., priority 2022, published 2025) can be followed below.

The target of one assay is KRas G12R (Homo sapiens, UniProt P01116, G12R). As to the kind of experiment: biochemical. Particulars: Binding to KRas (IC50 nM) G12R, TR-FRET displacement, KRas G12R. (In general: In TR-FRET formats the signal depends on donor and acceptor labels being close together.)
The subject of the next assay is H460 cells. As to the kind of experiment: Inhibition of KRas-mediated phosphorylation of ERK (Cisbio HTRF pERK), H460 cells. Particulars: Homo sapiens; for IC50: NCI-H460, 3 h, 3 hr compound incubation; for inhibition at 0.1 µM: NCI-H460, single point at 100 nM, 3 hrs compound incubation. It is filed as cell-based.
A further assay addresses KRas G12V (Homo sapiens, UniProt P01116, G12V). As to the kind of experiment: biochemical. Particulars: Binding to KRas (IC50 nM) G12V, TR-FRET displacement, KRas G12V.
A further assay deals with H358 cells. As to the kind of experiment: Inhibition of KRas-mediated phosphorylation of ERK (Cisbio HTRF pERK), H358 cells. It is filed as cell-based. Particulars: Homo sapiens; for IC50: NCI-H358, 3 h, 3 hr compound incubation; for inhibition at 0.1 µM: NCI-H358, single point at 100 nM, 3 hrs compound incubation.
In the next assay the test system is PSN1 cells. As to the kind of experiment: Inhibition of KRas-mediated phosphorylation of ERK (Cisbio HTRF pERK), PSN1 cells. It is filed as cell-based. Particulars: Homo sapiens, PSN1, 3 h. The method, boiled down: (§1)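 On the first day, plate 6,000 cells into each well in RPMI medium with 10% fetal bovine serum.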
Another assay addresses KRas G12D (Homo sapiens, UniProt P01116, G12D). The assay can be described thus: biochemical. As to conditions: Binding to KRas (IC50 nM) G12D, TR-FRET displacement, KRas G12D.
The test system of a further assay is A549 cells. The assay can be described thus: Inhibition of KRas-mediated phosphorylation of ERK (Cisbio HTRF pERK), A549 cells. The format is cell-based. As to conditions: Homo sapiens; for IC50: A549, 3 h, 3 hr compound incubation; for inhibition at 0.1 µM: single point at 100 nM, 3 hrs compound incubation.
A further assay relates to HCT116 cells. The assay can be described thus: Inhibition of KRas-mediated phosphorylation of ERK (Cisbio HTRF pERK), HCT116 cells. The format is cell-based. Particulars: Homo sapiens; for IC50: HCT-116, 3 h, 3 hr compound incubation; for inhibition at 0.1 µM: HCT-116, single point at 100 nM, 3 hrs compound incubation.
For a further assay, the system named is MKN1 cells. As to the kind of experiment: Inhibition of KRas-mediated phosphorylation of ERK (Cisbio HTRF pERK), MKN1 cells. The format is cell-based. Particulars: Homo sapiens. In a few lines:
as §1

Another assay concerns ASPC1 cells. As to the kind of experiment: Inhibition of KRas-mediated phosphorylation of ERK (Cisbio HTRF pERK), ASPC1 cells. As to conditions: Homo sapiens, AsPC-1 cells; for IC50: ASPC1, 3 h, 3 hr compound incubation; for inhibition at 0.1 µM: ASPC1, single point at 100 nM, 3 hrs compound incubation. The format is cell-based.
The subject of another assay is H727 cells. The assay can be described thus: Inhibition of KRas-mediated phosphorylation of ERK (Cisbio HTRF pERK), H727 cells. It is filed as cell-based. As to conditions: Homo sapiens; for IC50: NCI-H727, 3 h, 3 hr compound incubation; for inhibition at 0.1 µM: NCI-H727, single point at 100 nM, 3 hrs compound incubation.
Setting [1] is: 3 hour compound incubation, Cisbio pERK HTRF.
Setting [2] is: MKN-1, 3 hour compound incubation, Cisbio pERK HTRF.

Sequence of KRas G12R (P01116 1-169 isoform P01116-2 G12R): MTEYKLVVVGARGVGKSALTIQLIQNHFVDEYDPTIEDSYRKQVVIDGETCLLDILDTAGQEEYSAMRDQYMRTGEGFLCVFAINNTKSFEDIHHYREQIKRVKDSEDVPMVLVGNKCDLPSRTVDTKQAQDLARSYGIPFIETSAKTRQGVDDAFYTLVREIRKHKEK
Sequence of KRas G12V (P01116 1-169 isoform P01116-2 G12V): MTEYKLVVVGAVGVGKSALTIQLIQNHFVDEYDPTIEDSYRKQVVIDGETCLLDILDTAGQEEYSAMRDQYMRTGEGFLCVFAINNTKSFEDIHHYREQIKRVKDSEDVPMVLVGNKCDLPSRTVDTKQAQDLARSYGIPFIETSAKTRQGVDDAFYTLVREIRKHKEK
Sequence of KRas G12D (P01116 1-169 isoform P01116-2 G12D): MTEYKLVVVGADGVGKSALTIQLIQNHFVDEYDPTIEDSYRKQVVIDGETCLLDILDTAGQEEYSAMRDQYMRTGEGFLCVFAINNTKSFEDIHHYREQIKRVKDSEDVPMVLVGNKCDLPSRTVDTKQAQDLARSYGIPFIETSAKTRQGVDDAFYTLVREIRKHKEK

Take `C[C@@H]1C[C@@H]1c1c(Cl)cc(O)cc1N1CCc2c(nc(OC[C@@]34CCCN3C[C@H](F)C4)nc2N2CCC[C@]3(CNS(=O)(=O)N3)C2)C1` (stereo in doubt) [Example 654, (R)-7-(7-(3-chloro-5-hydroxy-2-(cis-2-methylcyclopropyl)phenyl)-2-(((2R,7aS)-2-fluorotetrahydro-1H-pyrrolizin-7a(5H)-yl)methoxy)-5,6,7,8-tetrahydropyrido[3,4-d]pyrimidin-4-yl)-2-thia-1,3,7-triazaspiro[4.5]decane 2,2-dioxide]: the IC50 at KRas G12R is 3 nM; in the assay on H460 cells it was 131 nM; on KRas G12V, under 2 nM; with H358 cells, 72 nM; in the assay with PSN1 cells (3 hr compound incubation), 2660 nM; at KRas G12D, 2 nM. In addition, the IC50 in the assay with A549 cells came out at 334 nM; in the assay with HCT116 cells it was 191 nM; with MKN1 cells (MKN-1, 3 hr compound incubation), 38.7 nM; in the assay on ASPC1 cells, 197 nM; with H727 cells it was 323 nM.

With `CCc1c(F)ccc2cc(O)cc(N3CCc4c(nc(OC[C@@]56CCCN5C[C@H](F)C6)nc4N4CCCn5nc(C(=O)N6CCC7CC6CN7)cc5C4)C3)c12` (stereo partly drawn) [Example 235, 2,6-diazabicyclo[3.2.1]octan-2-yl(5-(7-(8-ethyl-7-fluoro-3-hydroxynaphthalen-1-yl)-2-(((2R,7aS)-2-fluorohexahydro-1H-pyrrolizin-7a-yl)methoxy)-5,6,7,8-tetrahydropyrido[3,4-d]pyrimidin-4-yl)-5,6,7,8-tetrahydro-4H-pyrazolo[1,5-a][1,4]diazepin-2-yl)methanone], the IC50 was under 2 nM at KRas G12R; under 2 nM at KRas G12V; over 10000 nM in the assay on PSN1 cells (setting [1]); 2 nM on KRas G12D; 294 nM in the assay with MKN1 cells (setting [2]); 52 nM in the assay with ASPC1 cells (Cisbio pERK HTRF). 302 nM corresponded to half-maximal inhibition in the assay on H727 cells (Cisbio pERK HTRF) (IC50). For the same compound, the inhibition at 0.1 µM with H460 cells is 2%; in the assay on H358 cells, 8%; in the assay with A549 cells it was 13%; in the assay with HCT116 cells, 5%; in the assay with ASPC1 cells it was 30%; in the assay on H727 cells, -5%.

Turning to `CCc1c(F)ccc2cc(O)cc(N3CCc4c(nc(OC[C@@]56CCCN5C[C@H](F)C6)nc4N4CCCn5nc(C(=O)N6CC7(CCCN7)C6)cc5C4)C3)c12` [Example 277, (5-(7-(8-ethyl-7-fluoro-3-hydroxynaphthalen-1-yl)-2-(((2R,7aS)-2-fluorohexahydro-1H-pyrrolizin-7a-yl)methoxy)-5,6,7,8-tetrahydropyrido[3,4-d]pyrimidin-4-yl)-5,6,7,8-tetrahydro-4H-pyrazolo[1,5-a][1,4]diazepin-2-yl)(2,5-diazaspiro[3.4]octan-2-yl)methanone], the IC50 at KRas G12R was under 2 nM; on KRas G12V, under 2 nM; with PSN1 cells (setting [1]), over 10000 nM; at KRas G12D, under 2 nM; in the assay on MKN1 cells (setting [2]) it was 41.7 nM; in the assay on ASPC1 cells (Cisbio pERK HTRF) it was 37 nM. This compound gave an IC50 in the assay with H727 cells (Cisbio pERK HTRF) of 210 nM. The inhibition at 0.1 µM in the assay on H460 cells is 12%; with H358 cells it was 64%; in the assay on A549 cells, 25%; in the assay on HCT116 cells it was -2%.

In the case of `CCc1c(F)ccc2cc(O)cc(N3CCc4c(nc(OC[C@@]56CCCN5C[C@H](F)C6)nc4N4CCCn5nc(C(=O)N6CCC7(CCN7)C6)cc5C4)C3)c12` (stereo partly drawn) [Example 278, (5-(7-(8-ethyl-7-fluoro-3-hydroxynaphthalen-1-yl)-2-(((2R,7aS)-2-fluorohexahydro-1H-pyrrolizin-7a-yl)methoxy)-5,6,7,8-tetrahydropyrido[3,4-d]pyrimidin-4-yl)-5,6,7,8-tetrahydro-4H-pyrazolo[1,5-a][1,4]diazepin-2-yl)(1,6-diazaspiro[3.4]octan-6-yl)methanone], the IC50 on KRas G12R was under 2 nM; at KRas G12V it was under 2 nM; in the assay with PSN1 cells (setting [1]), over 10000 nM; at KRas G12D it was under 2 nM; in the assay on MKN1 cells (setting [2]), 156 nM; in the assay on ASPC1 cells (Cisbio pERK HTRF), 68 nM. In addition, the IC50 in the assay with H727 cells (Cisbio pERK HTRF) amounted to 659 nM. In addition, the inhibition at 0.1 µM in the assay on H460 cells is -10%; with H358 cells, 12%; with A549 cells, 22%; in the assay with HCT116 cells, -6%.

For the compound `CCc1c(F)ccc2cc(O)cc(N3CCc4c(nc(OC[C@@]56CCCN5C[C@H](F)C6)nc4N4CCCn5nc(CC(=O)N(C)C)cc5C4)C3)c12` [Example 317, 2-(5-(7-(8-ethyl-7-fluoro-3-hydroxynaphthalen-1-yl)-2-(((2R,7aS)-2-fluorohexahydro-1H-pyrrolizin-7a-yl)methoxy)-5,6,7,8-tetrahydropyrido[3,4-d]pyrimidin-4-yl)-5,6,7,8-tetrahydro-4H-pyrazolo[1,5-a][1,4]diazepin-2-yl)-N,N-dimethylacetamide], the IC50 is 4 nM at KRas G12R; 4 nM at KRas G12V; over 10000 nM with PSN1 cells (setting [1]); 5 nM on KRas G12D; 63 nM in the assay with MKN1 cells (setting [2]); 185 nM in the assay with ASPC1 cells (Cisbio pERK HTRF). Also, the IC50 in the assay with H727 cells (Cisbio pERK HTRF) is 327 nM. The inhibition at 0.1 µM in the assay on H460 cells was 1%; with H358 cells it was 19%; in the assay with A549 cells, 12%; in the assay with HCT116 cells it was 13%.

`CCc1c(F)ccc2cc(O)cc(N3CCc4c(nc(OC[C@@]56CCCN5C[C@H](F)C6)nc4N4CCCn5nc(C(=O)NC)c(OC)c5C4)C3)c12` [Example 320, 5-(7-(8-ethyl-7-fluoro-3-hydroxynaphthalen-1-yl)-2-(((2R,7aS)-2-fluorohexahydro-1H-pyrrolizin-7a-yl)methoxy)-5,6,7,8-tetrahydropyrido[3,4-d]pyrimidin-4-yl)-3-methoxy-N-methyl-5,6,7,8-tetrahydro-4H-pyrazolo[1,5-a][1,4]diazepine-2-carboxamide]: the IC50 was under 2 nM at KRas G12R; 41 nM in the assay with H460 cells (Cisbio pERK HTRF); under 2 nM on KRas G12V; 5 nM with H358 cells (Cisbio pERK HTRF); 1420 nM in the assay with PSN1 cells (setting [1]); under 2 nM at KRas G12D. For the same compound, the IC50 in the assay on A549 cells (Cisbio pERK HTRF) is 20 nM; with HCT116 cells (Cisbio pERK HTRF) it was 214 nM; in the assay with MKN1 cells (setting [2]), 4.2 nM; with ASPC1 cells (Cisbio pERK HTRF) it was 5 nM; in the assay with H727 cells (Cisbio pERK HTRF) it was 6 nM. Moreover, the inhibition at 0.1 µM in the assay on H460 cells was found to be 56%; in the assay with H358 cells, 103%; in the assay on A549 cells it was 90%; in the assay with HCT116 cells, 17%; in the assay on ASPC1 cells, 99%; in the assay with H727 cells it was 70%.

For `CCc1c(F)ccc2cc(O)cc(N3CCc4c(nc(OC[C@@]56CCCN5C[C@H](F)C6)nc4N4CCCn5nc(CNS(=O)(=O)N(C)C)cc5C4)C3)c12` [Example 336, 7-(8-ethyl-7-fluoro-3-hydroxy-1-naphthyl)-2-(((2R,7aS)-2-fluorotetrahydro-1H-pyrrolizin-7a(5H)-yl)methoxy)-4-(2-((dimethylsulfamoyl)amino)methyl-7,8-dihydro-4H-pyrazolo[1,5-a][1,4]diazepin-5(6H)-yl)-6,8-dihydro-5H-pyrido[3,4-d]pyriimidine], the IC50 was 7 nM at KRas G12R; 8 nM at KRas G12V; over 10000 nM in the assay with PSN1 cells (setting [1]); 3 nM at KRas G12D; 531 nM in the assay on MKN1 cells (setting [2]); 289 nM in the assay with ASPC1 cells (Cisbio pERK HTRF). This compound also displayed an IC50 with H727 cells (Cisbio pERK HTRF) of 517 nM. Besides, the inhibition at 0.1 µM is 1% with H460 cells, -26% with H358 cells, -24% with A549 cells and -11% with HCT116 cells.

A word on the IC50: it is the point on the concentration scale where inhibition reaches its midpoint. Higher therefore signals weaker potency. In general, inhibition refers to the change of the read-out against control, counted positive when it falls.
